Source: patent publication US11524966B1 (Valo Early Discovery, Inc., priority 2017, dated 2022)

Biological target: T1, USP25 (USP25-His6, Boston Biochem E-546) (Homo sapiens, UniProt Q9UHP3)
T1 construct: His6; purchased Boston Biochem E-546
T1 sequence (Q9UHP3 1-1055): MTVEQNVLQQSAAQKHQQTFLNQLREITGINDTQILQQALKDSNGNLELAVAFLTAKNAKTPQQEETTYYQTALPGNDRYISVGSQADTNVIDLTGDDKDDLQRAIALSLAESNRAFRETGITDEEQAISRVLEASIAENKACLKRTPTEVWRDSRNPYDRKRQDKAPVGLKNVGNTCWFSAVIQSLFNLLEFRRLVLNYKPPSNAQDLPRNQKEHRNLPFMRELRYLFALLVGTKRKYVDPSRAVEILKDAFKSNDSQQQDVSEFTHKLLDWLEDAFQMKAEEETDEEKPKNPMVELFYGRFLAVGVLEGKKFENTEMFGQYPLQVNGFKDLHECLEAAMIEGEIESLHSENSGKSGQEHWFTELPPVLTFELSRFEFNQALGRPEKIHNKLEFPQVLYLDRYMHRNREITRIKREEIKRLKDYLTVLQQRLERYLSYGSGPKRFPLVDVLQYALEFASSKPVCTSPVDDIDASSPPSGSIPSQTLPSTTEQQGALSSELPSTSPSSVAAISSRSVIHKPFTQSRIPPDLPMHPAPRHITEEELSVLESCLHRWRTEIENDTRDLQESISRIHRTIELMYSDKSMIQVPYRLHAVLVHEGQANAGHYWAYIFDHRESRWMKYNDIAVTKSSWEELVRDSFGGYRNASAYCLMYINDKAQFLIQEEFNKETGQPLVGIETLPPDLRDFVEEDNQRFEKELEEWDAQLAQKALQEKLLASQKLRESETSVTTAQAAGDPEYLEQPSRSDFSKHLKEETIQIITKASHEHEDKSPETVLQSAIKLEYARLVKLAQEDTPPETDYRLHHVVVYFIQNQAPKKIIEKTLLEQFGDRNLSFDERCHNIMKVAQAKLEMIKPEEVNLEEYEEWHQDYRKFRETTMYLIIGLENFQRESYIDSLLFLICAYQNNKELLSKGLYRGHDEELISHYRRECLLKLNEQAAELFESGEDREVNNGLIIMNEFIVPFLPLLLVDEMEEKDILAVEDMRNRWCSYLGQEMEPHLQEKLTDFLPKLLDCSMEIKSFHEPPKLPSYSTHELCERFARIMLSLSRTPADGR
Test: Ubiquitin-Rhodamine 110 Assay for USP25 Activity, Example A-2
Assay type: biochemical
Settings: Ubiquitin-Rhodamine 110 assay, Example A-2; read-out: USP25 A-2 IC50 range
Procedure: The assay was performed in a final volume of 9 μL in assay buffer containing 20 mM Tris-HCl (pH 8.0, (1M Tris-HCl, pH 8.0 solution; Corning 46-031-CM)), 3 mM BME (2-Mercaptoethanol; Sigma 63689-25ML-F), 0.03% BGG (0.22 μM filtered, Sigma, G7516-25G), and 0.01% Triton X-100 (Sigma, T9284-10L). Nanoliter quantities of 10-point, 3-fold serial dilution in DMSO was pre-dispensed into 1536 assay plates (Corning, #3724BC) for a final test concentration of 25 μM to 1.3 nM, top to lowest dose, respectively. Enzyme USP25, construct USP25-His6, (Boston Biochem E-546). Concentration and incubation times were optimized for the maximal signal-to-background while maintaining initial velocity conditions at a fixed substrate concentration. The final concentration of the enzyme in the assay was 75 pM. Final substrate (Ub-Rh110; Ubiquitin-Rhodamine 110, R&D Systems #U-555) concentration was 25 nM with [Ub-Rh110]<<Km. 3 μL of 2× enzyme was added to assay plates (pre-stamped with compound) preincubated with […] for 30 minutes and then 3 μL of 2×Ub-Rh110 was added to assay plates. Plates were incubated for 45 minutes at room temperature before addition of 3 μL of stop solution (final concentration of 10 mM citric acid (Sigma, 251275-500G)). Fluorescence was read on the Envision (Excitation at 485 nm and Emission at 535 nm; Perkin Elmer) or on the PheraSTAR (Excitation at 485 nm and Emission at 535 nm; BMG Labtech).
IC50 values were determined by curve fitting of the standard 4 parameter logistic fitting algorithm included in the Activity Base software package: IDBS XE Designer Model 205. Data is fitted using the Levenburg Marquardt algorithm.

With `Cc1ccc2c(N)c(C(=O)NC3COc4cc(N5CCNCC5)ccc4C3C)sc2n1` (single isomer, unassigned) [Example 11-17] the IC50 was greater than 2000 nM.

Biological target: T2, USP28 (His-tagged USP28-FL-mammalian) (Homo sapiens, UniProt Q96RU2)
T2 construct: Expression of USP28 (1-1077)-TEV-6*His (pTT5 vector); made in house; host or cells: Expi293f cells (pTT5 vector)
T2 sequence (Q96RU2 1-1077): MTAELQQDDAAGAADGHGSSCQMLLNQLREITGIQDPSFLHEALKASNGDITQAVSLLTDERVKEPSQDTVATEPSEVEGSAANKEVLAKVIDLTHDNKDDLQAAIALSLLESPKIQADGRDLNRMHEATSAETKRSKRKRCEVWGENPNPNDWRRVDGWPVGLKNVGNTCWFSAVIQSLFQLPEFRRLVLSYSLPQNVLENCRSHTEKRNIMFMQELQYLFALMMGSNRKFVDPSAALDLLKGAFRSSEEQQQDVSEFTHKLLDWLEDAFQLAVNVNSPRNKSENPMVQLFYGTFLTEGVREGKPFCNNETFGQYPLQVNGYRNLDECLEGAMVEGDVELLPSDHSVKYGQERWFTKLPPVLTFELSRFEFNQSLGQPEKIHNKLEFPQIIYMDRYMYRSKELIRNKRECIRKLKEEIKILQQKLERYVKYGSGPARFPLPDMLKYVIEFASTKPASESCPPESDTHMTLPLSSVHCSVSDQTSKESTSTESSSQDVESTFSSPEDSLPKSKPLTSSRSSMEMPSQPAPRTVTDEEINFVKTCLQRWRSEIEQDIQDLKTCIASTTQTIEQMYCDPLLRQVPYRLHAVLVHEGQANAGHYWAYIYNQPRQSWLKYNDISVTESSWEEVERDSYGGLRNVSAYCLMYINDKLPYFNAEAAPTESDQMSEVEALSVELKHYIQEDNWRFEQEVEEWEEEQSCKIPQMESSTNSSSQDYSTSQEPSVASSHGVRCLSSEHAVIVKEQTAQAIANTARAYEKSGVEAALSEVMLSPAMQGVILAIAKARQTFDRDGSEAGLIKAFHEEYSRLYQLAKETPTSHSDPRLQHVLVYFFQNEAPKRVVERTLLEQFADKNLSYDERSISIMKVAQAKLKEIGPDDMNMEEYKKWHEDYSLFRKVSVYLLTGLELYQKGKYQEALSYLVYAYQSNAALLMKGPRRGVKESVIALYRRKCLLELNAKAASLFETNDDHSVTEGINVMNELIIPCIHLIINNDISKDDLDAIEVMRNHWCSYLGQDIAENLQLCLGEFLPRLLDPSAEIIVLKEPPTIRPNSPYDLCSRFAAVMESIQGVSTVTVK
Test: Ubiquitin-Rhodamine 110 Assay for USP28 Activity, Example A-1(a)
Assay type: biochemical
Settings: Ubiquitin-Rhodamine 110 assay, Example A-1(a); read-out: USP28 A-1(a) IC50 range
In short: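 Full-length His-tagged USP28 (1-1077, Expi293F-expressed; […]) was preincubated 30 min with compound (25 μM–1.3 nM, 10-point 3-fold) in 20 mM Tris-HCl pH 8.0, 3 mM BME, 0.03% BGG, 0.01% Triton X-100. Ub-Rh110 (25 nM) was then added for 45 min at room temperature, stopped with citric acid, and read by fluorescence (485/535 nm).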

`CO[C@]1(C)CN(c2ccc3c(n2)CC[C@H](NC(=O)c2sc4nc(C)ccc4c2N)C3)C[C@@H]1N` [Example 427, 3-amino-N-[(6S)-2-[(3R,4S)-4-amino-3-methoxy-3-methylpyrrolidin-1-yl]-5,6,7,8-tetrahydroquinolin-6-yl]-6-methylthieno[2,3-b]pyridine-2-carboxamide] and `CO[C@@]1(C)CN(c2ccc3c(n2)CC[C@H](NC(=O)c2sc4nc(C)ccc4c2N)C3)C[C@H]1N` [Example 428, 3-amino-N-[(6S)-2-[(3S,4R)-4-amino-3-methoxy-3-methylpyrrolidin-1-yl]-5,6,7,8-tetrahydroquinolin-6-yl]-6-methylthieno[2,3-b]pyridine-2-carboxamide] fall in the same range of IC50: 50 to 200 nM for the first, 50 to 200 nM for the second.

Compared with `Cc1ccc2c(N)c(C(=O)N[C@H]3CCc4nc(N5C6CC(N)CC5CS(=O)(=O)C6)ccc4C3)sc2n1` (stereo partly drawn) [Example 429, 3-amino-N-[(6S)-2-{7-amino-3,3-dioxo-3λ^6-thia-9-azabicyclo[3.3.1]nonan-9-yl}-5,6,7,8-tetrahydroquinolin-6-yl]-6-methylthieno[2,3-b]pyridine-2-carboxamide], `Cc1ccc2c(N)c(C(=O)N[C@H]3CCc4nc(N5C[C@H](N)[C@]6(CCOC6)C5)ccc4C3)sc2n1` [Example 430, 3-amino-N-[(6S)-2-[(5S,9R)-9-amino-2-oxa-7-azaspiro[4.4]nonan-7-yl]-5,6,7,8-tetrahydroquinolin-6-yl]-6-methylthieno[2,3-b]pyridine-2-carboxamide] is higher in IC50: 1 to 50 nM for the first, 50 to 200 nM for the second. The first is the more potent here.

Compared with `Cc1ccc2c(N)c(C(=O)N[C@H]3CCc4nc(N5C[C@@H](N)[C@@]6(CCOC6)C5)ccc4C3)sc2n1` [Example 431, 3-amino-N-[(6S)-2-[(5R,9S)-9-amino-2-oxa-7-azaspiro[4.4]nonan-7-yl]-5,6,7,8-tetrahydroquinolin-6-yl]-6-methylthieno[2,3-b]pyridine-2-carboxamide], `Cc1ccc2c(N)c(C(=O)N[C@H]3COc4cc(N5C[C@@H](N)[C@]6(CCOC6)C5)ccc4C3)sc2n1` [Example 432, 3-amino-N-[(3R)-7-[(5S,9S)-9-amino-2-oxa-7-azaspiro[4.4]nonan-7-yl]-3,4-dihydro-2H-1-benzopyran-3-yl]-6-methylthieno[2,3-b]pyridine-2-carboxamide] is lower in IC50: 50 to 200 nM for the first, 1 to 50 nM for the second. The second is the more potent here.

`Cc1ccc2c(N)c(C(=O)N[C@H]3COc4cc(N5C[C@@H](N)[C@@]6(CCOC6)C5)ccc4C3)sc2n1` [Example 433, 3-amino-N-[(3R)-7-[(5R,9S)-9-amino-2-oxa-7-azaspiro[4.4]nonan-7-yl]-3,4-dihydro-2H-1-benzopyran-3-yl]-6-methylthieno[2,3-b]pyridine-2-carboxamide] and `Cc1ccc2c(N)c(C(=O)N[C@H]3CCc4cc(N5C[C@@H](CF)[C@@H](N)C5)ccc4C3)sc2n1` [Example 436, 3-amino-N-[(2S)-6-[(3R,4R)-3-amino-4-(fluoromethyl)pyrrolidin-1-yl]-1,2,3,4-tetrahydronaphthalen-2-yl]-6-methylthieno[2,3-b]pyridine-2-carboxamide] fall in the same range of IC50: 1 to 50 nM for the first, 1 to 50 nM for the second.

`CO[C@@]12CCN[C@H]1CN(c1ccc3c(n1)CC[C@H](NC(=O)c1sc4nc(C)ccc4c1N)C3)C2` [Example 434, N-[(6S)-2-[(3aR,6aS)-3a-methoxy-octahydropyrrolo[2,3-c]pyrrol-5-yl]-5,6,7,8-tetrahydroquinolin-6-yl]-3-amino-6-methylthieno[2,3-b]pyridine-2-carboxamide] and `CO[C@]12CCN[C@@H]1CN(c1ccc3c(n1)CC[C@H](NC(=O)c1sc4nc(C)ccc4c1N)C3)C2` [Example 435, N-[(6S)-2-[(3aS,6aR)-3a-methoxy-octahydropyrrolo[2,3-c]pyrrol-5-yl]-5,6,7,8-tetrahydroquinolin-6-yl]-3-amino-6-methylthieno[2,3-b]pyridine-2-carboxamide] fall in the same range of IC50: 50 to 200 nM for the first, 50 to 200 nM for the second.
